The text below walks through data of patent US7741360B2, “Bi-aryl or aryl-heteroaryl substituted indoles” (AstraZeneca AB, priority 2006, dated 2010).

In this assay the target is T1, rhCRTh2 (Homo sapiens, UniProt Q9Y5Y4).
T1 construct: expressed in transfected cells; host or cells: HEK cells (membrane preparation)
T1 sequence (Q9Y5Y4 1-395): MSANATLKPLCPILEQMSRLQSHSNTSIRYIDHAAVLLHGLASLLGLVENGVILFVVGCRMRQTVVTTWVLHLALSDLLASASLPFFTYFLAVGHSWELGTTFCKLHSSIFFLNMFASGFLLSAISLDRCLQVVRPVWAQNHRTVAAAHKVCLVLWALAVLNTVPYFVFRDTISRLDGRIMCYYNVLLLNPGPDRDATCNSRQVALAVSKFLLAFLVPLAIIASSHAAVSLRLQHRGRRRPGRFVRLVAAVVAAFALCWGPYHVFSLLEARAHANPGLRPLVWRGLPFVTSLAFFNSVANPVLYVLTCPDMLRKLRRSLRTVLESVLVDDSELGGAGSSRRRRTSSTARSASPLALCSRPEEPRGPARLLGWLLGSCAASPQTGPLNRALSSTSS
Put plainly: Ligand binding assay, [3H]PGD2 SPA on HEK cell membranes. As to conditions: [3H]PGD2 displacement, membranes of HEK cells expressing rhCRTh2/Gα16, SPA beads, RT 2 hours. The method, then: [^3H]PGD2 was purchased from Perkin Elmer Life Sciences with a specific activity of 100-210 Ci/mmol. All other chemicals were of analytical grade.
HEK cells expressing rhCRTh2/Gα16 were routinely maintained in DMEM containing 10% Foetal Bovine Serum (HyClone), 1 mg/ml geneticin, 2 mM L-glutamine and 1% non-essential amino acids. For the preparation of membranes, the adherent transfected HEKcells were grown to confluence in two layer tissue culture factories (Fisher, catalogue number TKT-170-070E). Maximal levels of receptor expression were induced by addition of […] sodium butyrate for the last 18 hours of culture. […] The final pellet was re-suspended in 4 ml of membrane homogenisation buffer per cell factory used and the protein content determined. […]
All assays were performed in Corning clear bottomed, white 96-well NBS plates (Fisher). […] (The optimum coating concentrations were determined for each batch of membranes) The beads were pelleted by centrifugation (800×g for 7 minutes at 4° C.), washed once with assay buffer (50 mM HEPES pH 7.4 containing 5 mM magnesium chloride) and finally re-suspended in assay buffer at a bead concentration of 10 mg/ml. […]

For the compound `Cc1c(Sc2ccc(-c3ccccc3)cc2)c2cc(F)ccc2n1CC(=O)O` [Example 1, [3-(Biphenyl-4-ylsulfanyl)-5-fluoro-2-methyl-indol-1-yl]-acetic acid], the IC50 was 20 nM.

A word on the IC50: it is the midpoint of a concentration-inhibition curve.
